Test results reported in US9446130B2, “BTK inhibitors” (MERCK SHARP & DOHME CORP., priority 2013, dated 2016).

Legend:
[1] = biological target: T1, BTK enzyme (hBTK, full-length recombinant) (Homo sapiens (Human), UniProt Q06187); test: Btk enzyme activity assay, Method A: IMAP-FP; assay type: biochemical; conditions: 5 μM ATP, 60 minute compound & enzyme incubation
Excerpt: Inhibition of kinase activity can be measured using the Immobilized Metal Assay for Phosphochemicals (IMAP) assay. IMAP is a homogeneous fluorescence polarization (FP) assay based on affinity capture of phosphorylated peptide substrates. IMAP uses fluorescein-labeled peptide substrates that, upon phosphorylation by a protein kinase, bind to so-called IMAP nanoparticles, which are derivatized with trivalent metal complexes. Binding causes a change in the rate of the molecular motion of the peptide, and results in an increase in the FP value observed for the fluorescein label attached to the substrate peptide (Gaudet et al. A homogeneous fluorescence polarization assay adaptable for a range of protein serine/threonine and tyrosine kinases. J. Biomol. Screen (2003) 8, 164-175).
BTK enzymatic activity was determined in an IMAP-FP assay (Immobilized Metal ion Affinity-based fluorescence Polarization; Molecular Devices). […] Plates were read on Packard microplate reader after 60 minutes binding equilibration using Fluorescence Polarization protocol. Specifically, fluorescence at 535 nm is measured using emission filters oriented both parallel and perpendicular to the polarized excitation filter. This allows detection of changes in Fluorescence Polarization due to binding of the phosphorylated substrate peptide to the beads. […]

[2] = biological target: T1, BTK enzyme (hBTK, full-length recombinant); test: Btk enzyme activity assay, Method B: LANCE TR-FRET; assay type: biochemical; conditions: 25 μM ATP, 60 minute compound & enzyme incubation
Experimental: Also BTK enzymatic activity was determined with the LANCE (Lanthanide Chelate Excite) TR-FRET (Time-resolved fluorescence resonance energy transfer) assay. […] The final reaction in each well of 10 μL consists of 100 pM hBTK, 2 μM biotin-A5-peptide, and 25 μM ATP. Phosphorylation reactions were allowed to proceed for 120 minutes. […] After 60 minutes incubation with detection reagents, reaction plates were read on a PerkinElmer EnVision plate reader using standard TR-FRET protocol. Briefly, excitation of donor molecules (Eu-chelate:anti-phospho-antibody) with a laser light source at 337 nm produces energy that can be transferred to Dylight-650 acceptor molecules if this donor:acceptor pair is within close proximity. Fluorescence intensity at both 665 nm (acceptor) and 615 nm (donor) are measured and a TR-FRET ratio calculated for each well (acceptor intensity/donor intensity). IC50 values were determined by 4 parameter robust fit of TR-FRET ratio values vs. (Log10) compound concentrations. BTK enzymatic activity was determined with the LANCE (Lanthanide Chelate Excite) TR-FRET (Time-resolved fluorescence resonance energy transfer) assay. […] The final reaction in each well of 10 μL consists of 50 pM hBTK, 2 μM biotin-A5-peptide, and 25 μM ATP. Phosphorylation reactions were allowed to proceed for 120 minutes. […] After 60 minutes incubation with detection reagents, reaction plates were read on a PerkinElmer EnVision plate reader using standard TR-FRET protocol. Briefly, excitation of donor molecules (Eu-chelate:anti-phospho-antibody) with a laser light source at 337 nm produces energy that can be transferred to Dylight-650 acceptor molecules if this donor:acceptor pair is within close proximity. Fluorescence intensity at both 665 nm (acceptor) and 615 nm (donor) are measured and a TR-FRET ratio calculated for each well (acceptor intensity/donor intensity). IC50 values were determined by 4 parameter robust fit of TR-FRET ratio values vs. (Log10) compound concentrations.

T1 sequence (Q06187 whole entry): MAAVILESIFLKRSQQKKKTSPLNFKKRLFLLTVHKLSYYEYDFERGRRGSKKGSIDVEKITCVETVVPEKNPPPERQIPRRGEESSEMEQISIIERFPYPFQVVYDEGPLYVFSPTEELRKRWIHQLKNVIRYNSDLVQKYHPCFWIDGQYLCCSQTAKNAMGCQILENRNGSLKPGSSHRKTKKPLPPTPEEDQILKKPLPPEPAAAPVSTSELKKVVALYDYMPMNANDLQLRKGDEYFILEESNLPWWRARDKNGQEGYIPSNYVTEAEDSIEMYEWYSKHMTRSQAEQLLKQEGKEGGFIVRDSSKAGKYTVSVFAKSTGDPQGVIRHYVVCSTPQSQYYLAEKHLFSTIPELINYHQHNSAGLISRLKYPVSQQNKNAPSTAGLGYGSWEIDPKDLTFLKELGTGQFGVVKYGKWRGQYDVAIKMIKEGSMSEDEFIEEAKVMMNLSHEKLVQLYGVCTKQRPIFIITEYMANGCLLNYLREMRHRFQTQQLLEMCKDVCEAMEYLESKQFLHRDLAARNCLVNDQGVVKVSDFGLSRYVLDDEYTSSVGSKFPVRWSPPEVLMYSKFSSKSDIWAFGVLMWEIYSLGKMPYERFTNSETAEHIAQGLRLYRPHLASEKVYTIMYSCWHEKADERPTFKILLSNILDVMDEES

IC50 [1] [nM]	IC50 [2] [nM]	SMILES
7.2	–	Cn1ncc2c1CCCC2(O)c1nc(-c2ccc(C(=O)Nc3cc(C(F)(F)F)ccn3)cc2)c2c(N)nccn12 (centres unmarked) [Example 1, 4-(8-amino-3-(4-hydroxy-1-methyl-4,5,6,7-tetrahydro-1H-indazol-4-yl)imidazo[1,5-a]pyrazin-1-yl)-N-(4-(trifluoromethyl)pyridin-2-yl)benzamide]
12	–	CCn1ncc2c1CCCC2(O)c1nc(-c2ccc(C(=O)Nc3cc(C(F)(F)F)ccn3)cc2)c2c(N)nccn12 (centres unmarked) [Example 4, 4-(8-amino-3-(1-ethyl-4-hydroxy-4,5,6,7-tetrahydro-1H-indazol-4-yl)imidazo[1,5-a]pyrazin-1-yl)-N-(4-(trifluoromethyl)pyridin-2-yl)benzamide]
–	2.1	Nc1ncnc2c1c(-c1ccc(C(=O)Nc3cc(C(F)(F)F)ccn3)cc1)nn2[C@H]1CCCc2c1cnn2CCO [Example 17, (S)-4-(4-amino-1-(1-(2-hydroxyethyl)-4,5,6,7-tetrahydro-1H-indazol-4-yl)-1H-pyrazolo[3,4-d]pyrimidin-3-yl)-N-(4-(trifluoromethyl)pyridin-2-yl)benzamide]
–	0.33	Cn1ncc2c1CCC[C@@]2(O)c1nc(-c2ccc(C(=O)Nc3cc(C(F)(F)F)ccn3)cc2)c2c(N)nccn12 [Example 2, (S)-4-(8-amino-3-(4-hydroxy-1-methyl-4,5,6,7-tetrahydro-1H-indazol-4-yl)imidazo[1,5-a]pyrazin-1-yl)-N-(4-(trifluoromethyl)pyridin-2-yl)benzamide]
–	5.9	Cn1ncc2c1CCC[C@H]2n1nc(-c2ccc(C(=O)Nc3cc(C(F)(F)F)ccn3)cc2)c2c(N)ncnc21 [Example 7, (R)-4-(4-amino-1-(1-methyl-4,5,6,7-tetrahydro-1H-indazol-4-yl)-1H-pyrazolo[3,4-d]pyrimidin-3-yl)-N-(4-(trifluoromethyl)pyridin-2-yl)benzamide]
